# In article PMC8752738, “A propolis-derived small molecule ameliorates metabolic syndrome in obese mice by targeting the CREB/CRTC2 transcriptional complex” (Nature Communications, 2022):
# “And” between values parts separate entries of the source, which are not always exact repeats. Equal entries are not always repeated.
# Tested on: tissue mRNA levels
# Assay: Quantitative PCR of tissue gene expression in treated mice
# Assay type: in vivo, mouse
# Set-up: key to mRNA levels Scap / mRNA levels Insig1 / mRNA levels Ldlr / mRNA levels Mttp / mRNA levels Atgl / mRNA levels Tnfaip2 / mRNA levels Rxra / mRNA levels Srebf1 / mRNA levels Ucp2: mRNA level normalized to ribosomal L32 mRNA (internal control)
# Conditions: for Lxra mRNA level: Figure 7g right, APC-20, single animals
# Procedure: Total RNA from cells and tissues was extracted by Trizol (Invitrogen) and reverse-transcribed into cDNA using the prime script RT reagent kit with gDNA eraser (Takara). The mRNA levels were determined using the SYBR-green PCR kit (Takara) with ABIPRISM 7900HT Sequence detector (ABI) according to the manufacturer’s protocol. The quantitative qPCR primers used in this work are listed in Supplementary Table 1. Ribosomal L32 mRNA levels were used as an internal control.
# [1] = Figure 6f, CRTC2KO mice, oral APC, individual mice
# [2] = Figure 6f, WT mice, oral APC, group mean, N 6
# [3] = Figure 6f, WT mice, oral APC, individual mice
# [4] = Figure 8b, group mean, VEH mean 1.017
# [5] = Figure 8b, individual mice, relative to CT
# [6] = Figure 6d, white fat (WF) tissue of DIO mice, individual animals
compound,measurement,setting,value
"CC(C)=CCc1cc(C=CC(=O)O)cc(CC=C(C)C)c1O [APC, 3,5-diprenyl-4-hydroxycinnamic acid]",mRNA of Srebf-1c,[1],0.7027 and 0.8687 and 0.636 and 0.7129 and 0.563 and 0.649
same,mRNA of Srebf-2,[1],0.9632 and 0.7439 and 0.6331 and 0.8903 and 0.6443 and 0.8216
same,"mRNA of Srebf-1c, Mean Diff. APC - VEH","Figure 6f, WT mice, oral APC",-0.3789
same,"mRNA of Srebf-2, Mean Diff. APC - VEH","Figure 6f, WT mice, oral APC",-0.3018
same,"mRNA of Srebf-1c, Mean 1 (APC)",[2],0.629
same,"mRNA of Srebf-2, Mean 1 (APC)",[2],0.7556
same,mRNA of Srebf-1c,[3],0.563 and 0.9627 and 0.5968 and 0.3599 and 0.5266 and 0.7651
same,mRNA of Srebf-2,[3],0.6655 and 0.7786 and 0.6178 and 0.7571 and 0.8561 and 0.8585
same,Lxra mRNA level,Crtc2KO mice,1.153 and 0.7926 and 0.8176 and 0.4111 and 0.7938
same,Lxra mRNA level,WT mice,0.6135 and 0.274 and 0.3613 and 0.5157 and 0.4764
same,"mRNA levels G6Pase, Mean of APC","Figure 8b, group mean, VEH mean 1.004",0.5682
same,"mRNA levels Pck1, Mean of APC",[4],0.584
same,"mRNA levels Pgc-1a, Mean of APC",[4],0.499
same,mRNA levels G6Pase,[5],0.4956 and 0.4542 and 0.8275 and 0.9159 and 0.3526 and 0.3635
same,mRNA levels Pck1,[5],0.4515 and 0.4432 and 0.8122 and 0.7784 and 0.5234 and 0.4955
same,mRNA levels Pgc-1a,[5],0.6618 and 0.6014 and 0.6454 and 0.5396 and 0.2614 and 0.2843
same,"mRNA levels ApoB, Mean of APC","Figure 6d, white fat (WF) tissue of DIO mice, group mean, Mean of VEH 0.9173",0.3598
same,"mRNA levels Srebf-1c, Mean of APC","Figure 6d, white fat (WF) tissue of DIO mice, group mean, Mean of VEH 0.9567",0.3721
same,"mRNA levels Acsl1, Mean of APC","Figure 6d, white fat (WF) tissue of DIO mice, group mean, Mean of VEH 0.9649",0.4379
same,"mRNA levels Lxra, Mean of APC","Figure 6d, white fat (WF) tissue of DIO mice, group mean, Mean of VEH 0.976",0.6757
same,"mRNA levels Cebpa, Mean of APC","Figure 6d, white fat (WF) tissue of DIO mice, group mean, Mean of VEH 0.9829",1.129
same,"mRNA levels Creb, Mean of APC","Figure 6d, white fat (WF) tissue of DIO mice, group mean, Mean of VEH 0.9868",1.007
same,"mRNA levels Cpt1, Mean of APC","Figure 6d, white fat (WF) tissue of DIO mice, group mean, Mean of VEH 0.9898",1.536
same,"mRNA levels Pparγ, Mean of APC","Figure 6d, white fat (WF) tissue of DIO mice, group mean, Mean of VEH 0.9976",0.9616
same,"mRNA levels Tnfaip2, Mean of APC","Figure 6d, white fat (WF) tissue of DIO mice, group mean, Mean of VEH 1.005",0.9923
same,"mRNA levels Pgc-1a, Mean of APC","Figure 6d, white fat (WF) tissue of DIO mice, group mean, Mean of VEH 1.009",0.704
same,"mRNA levels Srebf-2, Mean of APC","Figure 6d, white fat (WF) tissue of DIO mice, group mean, Mean of VEH 1.017",0.6488
same,"mRNA levels Acc, Mean of APC","Figure 6d, white fat (WF) tissue of DIO mice, group mean, Mean of VEH 1.018",0.5342
same,"mRNA levels Scd1, Mean of APC","Figure 6d, white fat (WF) tissue of DIO mice, group mean, Mean of VEH 1.022",0.5423
same,"mRNA levels Fasn, Mean of APC","Figure 6d, white fat (WF) tissue of DIO mice, group mean, Mean of VEH 1.036",0.5535
same,"mRNA levels Mgll, Mean of APC","Figure 6d, white fat (WF) tissue of DIO mice, group mean, Mean of VEH 1.041",0.6295
same,"mRNA levels Retn, Mean of APC","Figure 6d, white fat (WF) tissue of DIO mice, group mean, Mean of VEH 1.044",0.3139
same,"mRNA levels Glut4, Mean of APC","Figure 6d, white fat (WF) tissue of DIO mice, group mean, Mean of VEH 1.054",0.2982
same,"mRNA levels Atgl, Mean of APC","Figure 6d, white fat (WF) tissue of DIO mice, group mean, Mean of VEH 1.057",1.332
same,"mRNA levels Hsl, Mean of APC","Figure 6d, white fat (WF) tissue of DIO mice, group mean, Mean of VEH 1.069",1.68
same,"mRNA levels Lpl, Mean of APC","Figure 6d, white fat (WF) tissue of DIO mice, group mean, Mean of VEH 1.114",0.6106
same,"mRNA levels Pgc-1b, Mean of APC","Figure 6d, white fat (WF) tissue of DIO mice, group mean, Mean of VEH 1.126",0.666
same,mRNA levels Acc,[6],0.5239 and 0.3917 and 0.6963 and 0.6783 and 0.5952 and 0.3196
same,mRNA levels Acsl1,[6],0.4459 and 0.1537 and 0.5539 and 0.2927 and 0.6116 and 0.5696
same,mRNA levels ApoB,[6],0.3337 and 0.2599 and 0.6345 and 0.1702 and 0.408 and 0.3527
same,mRNA levels Atgl,[6],1.322 and 1.233 and 1.718 and 1.2249 and 1.301 and 1.192
same,mRNA levels Cebpa,[6],1.279 and 0.9809 and 1.111 and 1.353 and 1.154 and 0.8979
same,mRNA levels Cpt1,[6],1.627 and 1.184 and 1.402 and 2.24 and 1.4196 and 1.345
same,mRNA levels Creb,[6],1.411 and 1.393 and 1.026 and 0.3555 and 0.9743 and 0.8802
same,mRNA levels Fasn,[6],0.5104 and 0.4062 and 0.9888 and 0.3127 and 0.6571 and 0.4456
same,mRNA levels Glut4,[6],0.4697 and 0.1331 and 0.1991 and 0.1942 and 0.3683 and 0.4245
same,mRNA levels Hsl,[6],2.303 and 1.694 and 1.5898 and 1.21 and 1.869 and 1.4146
same,mRNA levels Lpl,[6],0.6557 and 0.743 and 0.6544 and 0.3781 and 0.733 and 0.4994
same,mRNA levels Lxra,[6],0.7883 and 0.7167 and 0.4804 and 0.6732 and 0.7502 and 0.6457
same,mRNA levels Mgll,[6],0.5524 and 0.27 and 0.8642 and 0.6156 and 0.9323 and 0.5423
same,mRNA levels Pgc-1a,[6],0.5315 and 0.7402 and 0.6723 and 0.7798 and 0.8847 and 0.6158
same,mRNA levels Pgc-1b,[6],0.683 and 0.7869 and 0.6257 and 0.4165 and 0.7943 and 0.6894
same,mRNA levels Ppargamma,[6],1.1637 and 0.8189 and 1.303 and 0.8539 and 0.722 and 0.9079
